Measurements taken from US20230285405A1, “Pharmaceuticals for Treating or Preventing Nidoviruses and Picornaviruses” (priority 2020, published 2023).
Counter-ions that a name gives are not always drawn. Like-named read-outs stand apart in the source and are kept apart here.

Legend:
[1] = system: OC43; assay: Drug screening: OC43 nucleoprotein staining in infected A549-mRuby cells; format: cell-based, human beta coronavirus OC43
Experimental: A549-mRuby cells were seeded (3,000 cells per well) in nine 384-well plates using Multidrop combi. Cells were seeded in a final volume of 30 μl with DMEM+10% BCS. The following day, 20 μl of OC43 were added (MOI 0.3) and incubated at 33° C., 5% CO2 for 1 hour. 50 nl from the Selleck FDA-approved drug library (cat #L1300, Selleck) were added (1:1,000 dilution). Two columns (32 wells) were left uninfected and two columns were treated with DMSO and virus (no drug control). Cells were imaged using the IncuCyte S3 to measure cell numbers at day 0. Cells were incubated for 4 days at 33° C., 5% CO2 and were stained for OC43 nucleoprotein. All the following steps were performed at room temperature. Cells were fixed in 50 μl 4% PFA/PBS for 15 min, blocked with 50 μl 10% BSA+0.5% Triton X-100 in PBS for 30 minutes, stained with 50 μl anti-OC43 (cat #MAB9013, Milipore) diluted 1:2,000 in 2% BSA+0.1% Triton X-100 in PBS for 1 hour, washed with 50 μl PBS three times, stained with anti-mouse-AlexaFluor488 diluted 1:1,000 in 2% BSA+0.1% Triton X-100 in PBS for 1 hour, washed with 50 μl PBS three times and imaged on the IncuCyte S3 (day 4). The screen was performed twice.
(§1) The following parameters were extracted from the images: number of cells at day 0, number of cells at day 4 and total OC43 staining intensity at day 4. For analysis, OC43 staining intensity was normalized to the number of cells in the well and further normalized to the mean of the no drug controls, which was set to 100. […] For each plate, a drug was considered as a putative hit if it reduced OC43 staining by over 3 standard deviations from the mean of the no drug controls. Drugs were considered hits if they were not toxic and reduced OC43 staining by over 3 standard deviations in both repeats.
(§2) A library of 1,900 clinically used drugs was screened, the drugs either approved for human use or having extensive safety data in humans (Phase 2 or 3 clinical trials), for their ability to inhibit OC43 infection of the human lung epithelial cell line A549 (expressing an H2B-mRuby nuclear reporter). One day after plating, cells were infected at an MOI of 0.3, incubated at 33° C. for 1 hour and drugs were added to a final concentration of 10 μM. Cells were then incubated at 33° C. for 4 days, fixed and stained for the presence of the viral nucleoprotein. The cells were imaged at day 0 (following drug addition) and day 4 (after staining) to determine the drugs effect on cell growth and OC43 infection.

[2] = system: A549-mRuby cells; assay: Drug screening: effect on cell growth (cell number day 4 / day 0); conditions: 10 μM drug; for Growth_1: number of cells at day 4 divided by number of cells at day 0 / toxic_1: repeat #1; for Growth_2: number of cells at day 4 divided by number of cells at day 0 / toxic_2: repeat #2
Experimental: A549-mRuby cells were seeded (3,000 cells per well) in nine 384-well plates using Multidrop combi. Cells were seeded in a final volume of 30 μl with DMEM+10% BCS. The following day, 20 μl of OC43 were added (MOI 0.3) and incubated at 33° C., 5% CO2 for 1 hour. 50 nl from the Selleck FDA-approved drug library (cat #L1300, Selleck) were added (1:1,000 dilution). Two columns (32 wells) were left uninfected and two columns were treated with DMSO and virus (no drug control). Cells were imaged using the IncuCyte S3 to measure cell numbers at day 0. Cells were incubated for 4 days at 33° C., 5% CO2 and were stained for OC43 nucleoprotein. All the following steps were performed at room temperature. […] The screen was performed twice.
as §1, §2

[3] = 10 μM drug, MOI 0.3, 4 days, OC43 staining normalized to no-drug controls, mean of the two screen repeats
[4] = 10 μM drug, MOI 0.3, 4 days, normalized to no-drug controls in the same plate, repeat #1
[5] = 10 μM drug, MOI 0.3, 4 days, normalized to no-drug controls in the same plate, repeat #2
[6] = Betacoronavirus 1, OC43, 96 h, 10 μM drug, MOI 0.3, 4 days, normalized to no-drug controls in the same plate, repeat #1, read-out: OC43_1: % staining of OC43 in screen repeat #1
[7] = Betacoronavirus 1, OC43, 96 h, 10 μM drug, MOI 0.3, 4 days, normalized to no-drug controls in the same plate, repeat #2, read-out: OC43_2: % staining of OC43 in screen repeat #2
[8] = Betacoronavirus 1, OC43, 96 h, 10 μM drug, MOI 0.3, 4 days, OC43 staining normalized to no-drug controls, mean of the two screen repeats, read-out: OC43_mean

Row | Compound | OC43_mean [1, 3] [%] | OC43_1: % staining of OC43 in screen repeat #1 [1, 4] [%] | OC43_2: % staining of OC43 in screen repeat #2 [1, 5] [%] | hit_1 ([1]; 10 μM drug, repeat #1) | hit_2 ([1]; 10 μM drug, repeat #2) | Growth_1: number of cells at day 4 divided by number of cells at day 0 [2] | toxic_1 [2] | Growth_2: number of cells at day 4 divided by number of cells at day 0 [2] | toxic_2 [2] | activity at 10 µM [1, 6] [%] | activity at 10 µM [1, 7] [%] | activity at 10 µM ([1]; Betacoronavirus 1, OC43, 96 h, read-out: OC43_mean) [%] | activity at 10 µM [1, 8] [%] | activity at 10 µM ([1]; Betacoronavirus 1, 96 h, 10 μM drug, MOI 0.3, 4 days, OC43 staining normalized to no-drug controls, mean of the two screen repeats, read-out: OC43_mean) [%]
1 | Prochlorperazine dimaleate salt | 40.2 | 47.2 | 33.1 | 1 | 1 | 3.1 | 0 | 3.1 | 0 |  |  |  |  | 
2 | CN1CCN(CCCN2c3ccccc3Sc3ccc(C(F)(F)F)cc32)CC1.Cl.Cl [Trifluoperazine 2HCl] | 31.6 | 33.8 | 29.5 | 1 | 1 | 2.3 | 0 | 2.1 | 0 |  |  |  |  | 
3 | CN(C)CCCN1c2ccccc2CCc2ccc(Cl)cc21.O [Clomipramine HCl] |  |  |  | 1 | 1 | 2.6 | 0 | 3.8 | 0 | 13.9 | 21.6 | 17.7 |  | 
4 | COc1cc2nc(N3CCN(C(=O)C4COc5ccccc5O4)CC3)nc(N)c2cc1OC (stereo not drawn) [Doxazosin Mesylate] |  |  |  | 1 | 1 | 5.2 | 0 | 4.9 | 0 | 50.1 | 9.2 |  | 29.7 | 
5 | CN1CCN(C2=Nc3cc(Cl)ccc3Nc3ccccc32)CC1 [Clozapine] |  |  |  | 1 | 1 | 4.6 | 0 | 4.3 | 0 | 15.8 | 46.9 |  | 31.3 | 
6 | C=C[C@]1(C)C[C@@H](OC(=O)CSC(C)(C)CNC(=O)[C@H](N)C(C)C)[C@]2(C)[C@H](C)CC[C@]3(CCC(=O)[C@H]32)[C@@H](C)[C@@H]1O [Valnemulin HCl] |  |  |  | 1 | 1 | 4.4 | 0 | 4.5 | 0 | 27.7 | 37.1 |  |  | 32.4
7 | CNCCCC12CCC(c3ccccc31)c1ccccc12 [Maprotiline HCl] |  |  |  | 1 | 1 | 3.5 | 0 | 3.1 | 0 | 27 | 25.1 |  | 26 | 
